# System: MAb 2G12 binding to HIV-1IIIB gp120
# Assay: Competitive ELISA: inhibition of 2G12 binding to immobilized gp120 by carbohydrate antigens
# Parameters: species or system human
# Settings: for Relative Affinity, Molar basis / Relative Affinity, Valency-corrected: Table 1; for Relative Affinity, Molar basis: from IC50, relative to Man9GlcNAc2Asn = 1.0; for Relative Affinity, Valency-corrected: from IC50, relative to Man9GlcNAc2Asn = 1.0, per oligosaccharide subunit; for affinity for 2G12 binding, Man9GlcNAc compared with Man9GlcNAc2Asn: result in words
# Experimental: Competitive ELISAs were performed to determine the relative inhibition potency of various carbohydrate antigens against the binding of 2G12 to gp120. Microtiter plates were coated with human cell line 293-expressed HIV-1IIIB gp120 (100 ng/ml) overnight at 4° C. After washing, non-specific binding was blocked with 5% BSA in PBS for 1 h at room temperature. The plates were then washed three times with 0.1% Tween-20/PBS. Serial dilutions (1:2) of various carbohydrate antigens were mixed with an equal volume of MAb 2G12 (fixed final concentration of 5 ng/ml) and added to the plates. The plates were incubated for 1 h at 37° C. and washed with washing buffer. To the plates was added a 100-μl solution of 1:3000 diluted horseradish peroxidase-conjugated goat anti-human IgG in 0.5% BSA/PBS. After incubation for 1 h at 37° C., the plates were washed again and a 100-μl solution of 3,3′,5,5′-tetramethyl benzidine (TMB) was added. Color was allowed to develop for 5 min, and the color reaction was quenched through adding a 100-μl solution of 0.5 M H2SO4 to each well. The optical density was then measured at 450 nm.
# The binding affinity of the high-mannose oligosaccharides was examined by competitive inhibition of 2G12 binding to immobilized gp120, as shown in FIG. 14.
# The synthetic Man9-clusters were examined for competitive inhibition of 2G12 binding to immobilized gp120 (FIG. 16).
Molecule,"Relative Affinity, Molar basis","Relative Affinity, Valency-corrected","fold more effective in inhibition of 2G12 binding than Man5GlcNAc (on a molar basis, versus Man5GlcNAc)","fold more effective in inhibition of 2G12 binding than Man6GlcNAc (on a molar basis, versus Man6GlcNAc)","affinity for 2G12 binding, Man9GlcNAc compared with Man9GlcNAc2Asn"
Man6GlcNAc,0.012,0.012,–,–,–
CC(=O)N[C@H]1C(O)O[C@H](CO)[C@@H](O[C@@H]2O[C@H](CO[C@H]3O[C@H](CO[C@H]4O[C@H](CO)[C@@H](O)[C@H](O)[C@@H]4O[C@H]4O[C@H](CO)[C@@H](O)[C@H](O)[C@@H]4O)[C@@H](O)[C@H](O[C@H]4O[C@H](CO)[C@@H](O)[C@H](O)[C@@H]4O[C@H]4O[C@H](CO)[C@@H](O)[C@H](O)[C@@H]4O)[C@@H]3O)[C@@H](O)[C@H](O[C@H]3O[C@H](CO)[C@@H](O)[C@H](O)[C@@H]3O[C@H]3O[C@H](CO)[C@@H](O)[C@H](O)[C@@H]3O[C@H]3O[C@H](CO)[C@@H](O)[C@H](O)[C@@H]3O)[C@@H]2O)[C@@H]1O (stereo partly drawn) [Man9GlcNAc],0.84,0.84,244 fold,85 fold,essentially the same affinity
CC(=O)N[C@@H]1[C@@H](O)[C@H](O[C@@H]2O[C@H](CO)[C@@H](O[C@@H]3O[C@H](CO[C@H]4O[C@H](CO[C@H]5O[C@H](CO)[C@@H](O)[C@H](O)[C@@H]5O[C@H]5O[C@H](CO)[C@@H](O)[C@H](O)[C@@H]5O)[C@@H](O)[C@H](O[C@H]5O[C@H](CO)[C@@H](O)[C@H](O)[C@@H]5O[C@H]5O[C@H](CO)[C@@H](O)[C@H](O)[C@@H]5O)[C@@H]4O)[C@@H](O)[C@H](O[C@H]4O[C@H](CO)[C@@H](O)[C@H](O)[C@@H]4O[C@H]4O[C@H](CO)[C@@H](O)[C@H](O)[C@@H]4O[C@H]4O[C@H](CO)[C@@H](O)[C@H](O)[C@@H]4O)[C@@H]3O)[C@H](O)[C@H]2NC(C)=O)[C@@H](CO)O[C@H]1NC(=O)C[C@H](N)C(=O)O [Man9GlcNAc2Asn],1.0,1.0,–,–,essentially the same affinity
CC(=O)N[C@H]1C(O)O[C@H](CO)[C@@H](O[C@@H]2O[C@H](CO[C@H]3O[C@H](CO[C@H]4O[C@H](CO)[C@@H](O)[C@H](O)[C@@H]4O)[C@@H](O)[C@H](O[C@H]4O[C@H](CO)[C@@H](O)[C@H](O)[C@@H]4O)[C@@H]3O)[C@@H](O)[C@H](O[C@H]3O[C@H](CO)[C@@H](O)[C@H](O)[C@@H]3O)[C@@H]2O)[C@@H]1O (stereo partly drawn) [Man5GlcNAc],0.004,0.004,–,–,–

# Reference: US7556806B2, “Carbohydrate-based synthetic vaccines for HIV” (University of Maryland Biotechnology Institute, priority 2002, dated 2009)
